# Earlier results in patent US12606918B2, “Production of sanitizing fluid using in situ electrolysis” (APPLIED PHAGE GMBH, priority 2024, dated 2026).
# Where two headings read alike, the source gives them in different places.
smiles,measurement,setting,value
[O-][Cl+2]([O-])O [chlorate],ADI (allowable daily intake),as ClO3^−,0.0024 mg/kg BW·day
same,ADI (allowable daily intake),as NaClO3,0.003 mg/kg BW·day
same,Arfd (acute reference dose),as NaClO3,0.003 mg/kg BW·day
